Assay [1] has as its target BuChE (Homo sapiens, UniProt P06276). Kind of assay: BuChE inhibition, Ellman colorimetric method. The assay is classed as biochemical. The conditions noted are these: ratio of BuChE IC50 values. (In Ellman's method for cholinesterases, released thiocholine reacts with DTNB.)
In assay [2] the target is AChE (Homo sapiens, UniProt P22303). Nature of the assay: AChE inhibition, Ellman colorimetric method. The conditions noted are these: ratio of AChE IC50 values. Type of assay: biochemical.
Chain of AChE (P22303 32-614): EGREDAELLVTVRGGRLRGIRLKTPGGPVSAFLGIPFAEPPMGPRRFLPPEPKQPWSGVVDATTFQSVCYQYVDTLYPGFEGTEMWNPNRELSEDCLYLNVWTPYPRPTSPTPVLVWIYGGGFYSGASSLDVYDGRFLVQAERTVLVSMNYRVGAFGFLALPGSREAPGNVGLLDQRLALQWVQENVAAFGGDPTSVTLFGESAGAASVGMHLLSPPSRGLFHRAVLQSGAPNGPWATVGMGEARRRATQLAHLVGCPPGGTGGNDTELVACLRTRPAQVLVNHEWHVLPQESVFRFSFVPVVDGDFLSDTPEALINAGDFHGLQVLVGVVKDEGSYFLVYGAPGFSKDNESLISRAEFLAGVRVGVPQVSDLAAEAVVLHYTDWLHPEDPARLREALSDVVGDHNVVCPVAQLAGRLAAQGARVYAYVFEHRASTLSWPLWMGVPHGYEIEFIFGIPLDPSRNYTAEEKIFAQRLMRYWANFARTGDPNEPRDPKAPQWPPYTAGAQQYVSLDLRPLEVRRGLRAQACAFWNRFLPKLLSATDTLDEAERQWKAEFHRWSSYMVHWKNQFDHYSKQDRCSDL

Chain of BuChE (P06276 29-602): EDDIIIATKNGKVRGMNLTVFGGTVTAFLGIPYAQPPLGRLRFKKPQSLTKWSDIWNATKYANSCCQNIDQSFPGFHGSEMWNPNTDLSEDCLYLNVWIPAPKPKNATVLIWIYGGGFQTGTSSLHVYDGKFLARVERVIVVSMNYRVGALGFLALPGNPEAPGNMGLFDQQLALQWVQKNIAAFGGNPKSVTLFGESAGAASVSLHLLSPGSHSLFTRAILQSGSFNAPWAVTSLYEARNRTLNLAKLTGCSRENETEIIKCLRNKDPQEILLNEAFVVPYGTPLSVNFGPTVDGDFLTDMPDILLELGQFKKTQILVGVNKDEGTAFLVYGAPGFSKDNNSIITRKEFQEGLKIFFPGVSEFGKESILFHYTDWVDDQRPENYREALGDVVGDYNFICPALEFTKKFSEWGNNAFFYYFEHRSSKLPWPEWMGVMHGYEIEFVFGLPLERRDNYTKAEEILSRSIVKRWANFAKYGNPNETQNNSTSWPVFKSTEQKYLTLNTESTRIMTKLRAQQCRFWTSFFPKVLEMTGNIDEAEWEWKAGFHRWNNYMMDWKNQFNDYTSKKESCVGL

Turning to `O=c1[nH]cc(Br)c(=O)[nH]1` [Compound 3, 5-bromo-1H-pyrimidine-2,4-dione], the “fold weaker BuChE inhibitor compared to uracil derivative 4” value in assay [1] (vs 4) is given as 2.13 fold.
`Cc1ccc(S(=O)(=O)n2cc(Br)c(=O)[nH]c2=O)cc1` [Compound 4, 5-Bromo-1-(toluene-4-sulfonyl)-1H-pyrimidine-2,4-dione]: in assay [2] (vs 3), the “fold stronger AChE inhibitory profile compared to uracil 3” value was found to be 1.71 fold. Also, the “fold active compared to neostigmine (AChE)” value in assay [2] (vs neostigmine) was determined as 1.54 fold. The “fold better BuChE inhibitor compared to 5” value in assay [1] (vs 5) is recorded as 1.42 fold. The “fold less active compared to neostigmine (BuChE)” value in assay [1] (vs neostigmine) is reported as 1.63 fold.
With `CS(=O)(=O)n1cc(Br)c(=O)[nH]c1=O` [Compound 5, 5-Bromo-1-methanesulfonyl-1H-pyrimidine-2,4-dione], in assay [2] (5 vs 4), the “fold decrease of AChE inhibitory activity, mesylate vs toluene-4-sulfonyl group” value was determined as 1.26 fold.

The values above are taken from publication PMC6327988 (Journal of Enzyme Inhibition and Medicinal Chemistry, 2019).
